According to patent US9827187B2, “Filaggrin gene expression promoter” (Shiseido Company, Ltd., priority 2012, dated 2017):

Experiments:
filaggrin gene [1] = test: Filaggrin gene expression promotion by 1PP, zanthoxylum extract and their combination (QPCR, cultured keratinocytes); assay type: cell-based, human; details: agent at 0.1% in medium (combination: 0.1% each); keratinocytes collected after 18 hours; versus no-agent control; FIG. 4
Protocol: Commercially available normal adult skin-derived keratinocytes (Cellntec AG) were disseminated in a culture plate to a concentration of 3×10^3 cells/cm^2 followed by culturing in epithelial cell medium (CnT-BM.1, Cellntec AG) at 37° in a 5% CO2 atmosphere. […] The absence of addition of pharmaceutical agent was used as a control.
RNA was extracted from the collected cells using a commercially available RNA extraction-cDNA synthesis kit (FastLane Cell cDNA Kit, Qiagen N.V.) to prepare cDNA. Filaggrin expression levels were measured by quantitative PCR (QPCR) using this cDNA. A commercially available QPCR reagent kit (Brilliant III Ultra-Fast SYBR Green QPCR Kit, Agilent Technologies Inc.) and QPCR measurement system (MX-3000P Real-time Quantitative PCR System, Agilent Technologies Inc.) were used for QPCR. The expression level of a housekeeping gene in the form of RPLP0 gene was quantified for use as an internal standard, and the relative expression level with respect to PLP0 was calculated and used as the expression level of filaggrin gene. The primer sequences shown in Table 1 were used for the sequences of the PCR primers.

filaggrin gene [2] = test: Screening pharmaceutical agents that promote filaggrin gene expression (QPCR, cultured keratinocytes); assay type: cell-based, human; details: candidate agent at 1% in medium; normal adult skin-derived keratinocytes; 18 hours after addition; relative to RPLP0; FIG. 3
Protocol: Commercially available normal adult skin-derived keratinocytes (Cellntec AG) were disseminated in a culture plate to a concentration of 3×10^3 cells/cm^2 followed by culturing in epithelial cell medium (CnT-BM.1, Cellntec AG) at 37° in a 5% CO2 atmosphere. Three days later, the medium was replaced with medium containing each of the candidate pharmaceutical agents at a concentration of 1% followed by continuing culturing at 37° C. and 5% CO2 and collecting the cells after 2 hours and after 18 hours. The candidate pharmaceutical agents added to the medium consisted of zanthoxylum extract (Maruzen Pharmaceuticals Co., Ltd.), geranium oil (Koei Kogyo Co., Ltd.), cypress oil (Bioland Co., Ltd.), rose oil (Bioland Co., Ltd.), galvanum oil (Bioland Co., Ltd.), pepper oil (Bioland Co., Ltd.), basil oil (Bioland Co., Ltd.), methyl-o-toluate (Aldrich Inc.), methyl anthranilate (Tokyo Chemical Industry Co., Ltd.), dimethyl anthranilate (Tokyo Chemical Industry Co., Ltd.), clove bud caryophyllata oil (Bioland Co., Ltd.) and arnica oil (Koei Kogyo Co., Ltd.). The absence of addition of pharmaceutical agent was used as a negative control, and cortisol (concentration in medium: 50 ng/mL) was used as a positive control.
RNA was extracted from the collected cells using a commercially available RNA extraction-cDNA synthesis kit (FastLane Cell cDNA Kit, Qiagen N.V.) to prepare cDNA. Filaggrin expression levels were measured by quantitative PCR (QPCR) using this cDNA. Expression levels of clock genes PER3 and BMAL1 were measured simultaneously and compared with the expression rhythm of filaggrin gene. A commercially available QPCR reagent kit (Brilliant III Ultra-Fast SYBR Green QPCR Kit, Agilent Technologies Inc.) and QPCR measurement system (MX-3000P Real-time Quantitative PCR System, Agilent Technologies Inc.) were used for QPCR. The expression level of a housekeeping gene in the form of RPLP0 gene was quantified for use as an internal standard, and the relative expression level with respect to PLP0 was calculated and used as the expression level of filaggrin gene. […]

## O=C(O)CCN1CCCCC1 [1PP, 3-(1′-piperidine)propionic acid]
Filaggrin gene [1]
  effect of promoting filaggrin gene expression: effect of promoting filaggrin gene expression that was comparable to that of zanthoxylum extract

## COC(=O)c1ccccc1C [methyl-o-toluate, methyl 2-methylbenzoate]
Filaggrin gene [2]
  expression of filaggrin gene after 18 hours in comparison with the negative control: promote expression of filaggrin gene

## CNc1ccccc1C(=O)OC [dimethyl anthranilate, 2-methyl aminomethylbenzoate]
Filaggrin gene [2]
  expression of filaggrin gene after 18 hours in comparison with the negative control: promote expression of filaggrin gene

## COC(=O)c1ccccc1N [methyl anthranilate, methyl 2-aminobenzoate]
Filaggrin gene [2]
  expression of filaggrin gene after 18 hours in comparison with the negative control: promote expression of filaggrin gene
